The results in this text go back to US20250332173A1, “COMPOUNDS AND METHODS FOR MODULATING NUCLEIC ACID SPLICING” (REMIX THERAPEUTICS INC., priority 2021, published 2025).

SMILES strings stand for the structures. pIC50: −log10 of the molar value. Counter-ions that a name gives are not always drawn.

In the test the test system is HTT. Put plainly: HiBiT protein abundance assay, HTT HiBiT K562 cell line. The class given is cell-based, human. Conditions: HiBiT K562 cell line, 24 hours, top dose 10 μM; read-out: Effect on protein abundance, HTT (IC50 category). The gist of the method: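 Endogenous targets in K562 knock-in lines carried a HiBiT tag and were treated for 24 h at 37 °C with 10-point 3-fold dilutions (top 10 μM final, DMSO ≤0.25%). Abundance was read as lytic Nano-Glo HiBiT luminescence. IC50 came from a four-parameter logistic fit of normalized response.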
A general note: The HiBiT peptide binds its large partner to form an active luciferase.
Turning to `Cc1cc(-c2ccc3c(=O)n(N4CCN(C)CC4)cnc3c2)cc2cn(C)nc12` [Compound 175], the pIC50 (as a rule, the IC50 on a negative log10 scale, so that one unit is a factor of ten) is 5.00 to 6.00.
As to `Cc1cn2nc(-c3ccc4c(=O)n(C5CCN(C)CC5)cnc4c3)cc(C)c2n1` [Compound 176], the negative logarithm of the IC50 (pIC50) was 5.00 to 6.00.
As to `CN1CCC(c2ccc3c(=O)n(-c4ccc5nn(C)cc5c4)cnc3c2)CC1` [Compound 177], the pIC50 was less than 5.00.
Next, `CN1CCN(c2ccc3c(=O)n(-c4ccc5cn(C)nc5c4)cnc3c2)CC1` [Compound 178]: less than 5.00; `Cc1cc(-c2ccc3c(=O)n(C4CC(C)(C)NC(C)(C)C4)cnc3n2)cc2cn(C)nc12` [Compound 179]: less than 5.00.
Regarding `CN(c1ccc2c(=O)n(-c3ccc4nn(C)cc4c3)cnc2c1)C1CCNCC1` [Compound 180], the pIC50 is less than 5.00.
Next, `Cc1cn2nc(-c3ccc4c(=O)n(C5CCNCC5)cnc4c3)cc(C)c2n1` [Compound 181]: greater than 7.00; `Cc1cc(-c2ccc3c(=O)n(C4CCNC5(CC5)C4)ncc3c2)cc2cn(C)nc12` (centres unmarked) [Compound 512]: 5.00 to 6.00; `Cc1nc2c(C)cc(-c3ccc4c(=O)n(C5CCNC6(CC6)C5)ncc4c3)cc2o1` (centres unmarked) [Compound 513]: 6.00 to 7.00.
For `COc1cc(-c2ccc3c(=O)n(C4CCNCC4)ccc3c2)nn2cc(C)nc12` [Compound 514, 6-(8-methoxy-2-methyl-imidazo[1,2-b]pyridazin-6-yl)-2-(4-piperidyl) isoquinolin-1-one; hydrochloride], the pIC50 is greater than 7.00.
Regarding `Cc1cn2nc(-c3ccc4c(=O)n(C5CCN(CCF)CC5)ncc4c3)cc(C)c2n1` [Compound 515], the pIC50 was 6.00 to 7.00.
Regarding `Cc1cn2nc(-c3ccc4c(=O)n(C5CCNCC5)ccc4c3)cc(C(=O)O)c2n1` [Compound 516, 2-methyl-6-[1-oxo-2-(4-piperidyl)-6-isoquinolyl]imidazo[1,2-b]pyridazine-8-carboxylic acid], the pIC50 is 5.00 to 6.00.
For `COC(=O)c1cc(-c2ccc3c(=O)n(C4CCNCC4)ccc3c2)nn2cc(C)nc12` [Compound 517, methyl 2-methyl-6-[1-oxo-2-(4-piperidyl)-6-isoquinolyl]imidazo[1,2-b]pyridazine-8-carboxylate], the pIC50 is 5.00 to 6.00.
For `CNC(=O)c1cc(-c2ccc3c(=O)n(C4CCNCC4)ccc3c2)nn2cc(C)nc12` [Compound 518, N, 2-dimethyl-6-[1-oxo-2-(4-piperidyl)-6-isoquinolyl]imidazo[1,2-b]pyridazine-8-carboxamide], the pIC50 was 5.00 to 6.00.
Next, `Cc1cn2nc(-c3ccc4c(=O)n(C5CCNCC5)ccc4c3)cc(Oc3ccccc3)c2n1` [Compound 519, 6-(2-methyl-8-phenoxy-imidazo[1,2-b]pyridazin-6-yl)-2-(4-piperidyl)isoquinolin-1-one]: greater than 7.00.
Regarding `Cc1cn2nc(-c3ccc4c(=O)n(C5CCNCC5)ccc4c3)cc(CC#N)c2n1` [Compound 520, 2-[2-methyl-6-[1-oxo-2-(4-piperidyl)-6-isoquinolyl]imidazo[1,2-b]pyridazin-8-yl]acetonitrile], the pIC50 was 6.00 to 7.00.
With `Cn1ccc2c(cnn2-c2ccc3c(=O)n(C4CCNCC4)ccc3c2)c1=O` [Compound 521], the pIC50 was 5.00 to 6.00.
Regarding `Cn1ccc2nn(-c3ccc4c(=O)n(C5CCNCC5)ccc4c3)cc2c1=O` [Compound 522, 6-{5-methyl-4-oxopyrazolo[4,3-c]pyridin-2-yl}-2-(piperidin-4-yl)isoquinolin-1-one], the pIC50 is less than 5.00.
Then `Cc1cn2nc(-c3ccc4c(=O)n(C5CCNCC5)ccc4c3)cc(C(N)=O)c2n1` [Compound 523, 2-methyl-6-[1-oxo-2-(4-piperidyl)-6-isoquinolyl]imidazo[1,2-b]pyridazine-8-carboxamide], with 5.00 to 6.00; and `Cc1cn2nc(-c3ccc4c(=O)n(C5CCNCC5)ccc4c3)cc(C(=O)N(C)C)c2n1` [Compound 524, N, N, 2-trimethyl-6-[1-oxo-2-(4-piperidyl)-6-isoquinolyl]imidazo[1,2-b]pyridazine-8-carboxamide], with less than 5.00.
As for `Cc1cn2nc(-c3ccc4c(=O)n(C5CCNCC5)ccc4c3)cc(CO)c2n1` [Compound 525, 6-[8-(hydroxymethyl)-2-methyl-imidazo[1,2-b]pyridazin-6-yl]-2-(4-piperidyl) isoquinolin-1-one], the pIC50 was greater than 7.00.
As for `Cc1cn2nc(-c3ccc4c(=O)n(C5CCNCC5)ccc4c3)cc(OCc3ccccc3)c2n1` [Compound 526, 6-(8-benzyloxy-2-methyl-imidazo[1,2-b]pyridazin-6-yl)-2-(4-piperidyl) isoquinolin-1-one], the pIC50 is 6.00 to 7.00.
Then `COC(=O)Cc1cc(-c2ccc3c(=O)n(C4CCNCC4)ccc3c2)nn2cc(C)nc12` [Compound 527], with 6.00 to 7.00; and `Cc1cn2nc(-c3ccc4c(=O)n(C5CCNCC5)ccc4c3)cc(CC(N)=O)c2n1` [Compound 528, 2-(2-methyl-6-(1-oxo-2-(piperidin-4-yl)-1,2-dihydroisoquinolin-6-yl)imidazo[1,2-b]pyridazin-8-yl) acetamide], with 6.00 to 7.00; and `CCOC(=O)c1cc(-c2ccc3c(=O)n(C4CCNCC4)ccc3c2)nn2cc(C)nc12` [Compound 529, ethyl 2-methyl-6-[1-oxo-2-(4-piperidyl)-6-isoquinolyl]imidazo[1,2-b]pyridazine-8-carboxylate], with 6.00 to 7.00.
Turning to `Cn1cc2c(=O)n(-c3ccc4c(=O)n(C5CCNCC5)ccc4c3)ccc2n1` [Compound 530, 6-{2-methyl-4-oxopyrazolo[4,3-c]pyridin-5-yl}-2-(piperidin-4-yl)isoquinolin-1-one], the pIC50 is less than 5.00.
Then `Cc1cn2nc(-c3ccc4c(=O)n(C5CCNCC5)ccc4c3)cc(CC(=O)O)c2n1` [Compound 531, 2-[2-methyl-6-[1-oxo-2-(4-piperidyl)-6-isoquinolyl]imidazo[1,2-b]pyridazin-8-yl]acetic acid], with greater than 7.00; and `Cc1cn2nc(-c3ccc4c(=O)n(C5CCNCC5)ccc4c3)cc(CCO)c2n1` [Compound 533, 6-[8-(2-hydroxyethyl)-2-methyl-imidazo[1,2-b]pyridazin-6-yl]-2-(4-piperidyl)isoquinolin-1-one], with 6.00 to 7.00.
Take `CNC(=O)Cc1cc(-c2ccc3c(=O)n(C4CCNCC4)ccc3c2)nn2cc(C)nc12` [Compound 534, N-methyl-2-[2-methyl-6-[1-oxo-2-(4-piperidyl)-6-isoquinolyl]imidazo[1,2-b]pyridazin-8-yl]acetamide]: the pIC50 was 5.00 to 6.00.
Regarding `Cc1cn2nc(-c3ccc4c(=O)n(C5CCNCC5)ccc4c3)cc(Cc3nnc[nH]3)c2n1` [Compound 535, 6-[2-methyl-8-(4H-1,2,4-triazol-3-ylmethyl)imidazo[1,2-b]pyridazin-6-yl]-2-(4-piperidyl) isoquinolin-1-one], the pIC50 was 5.00 to 6.00.
For `Cc1cn2nc(-c3ccc4c(=O)n(C5CCNCC5)ccc4c3)cc(Cc3nnn[nH]3)c2n1` [Compound 536, 6-[2-methyl-8-(1H-tetrazol-5-ylmethyl)imidazo[1,2-b]pyridazin-6-yl]-2-(4-piperidyl) isoquinolin-1-one], the pIC50 was less than 5.00.
Then `CCN1CCC(n2ncc3cc(-c4cc(C)c5nc(C)cn5n4)cc(F)c3c2=O)CC1` [Compound 537], with greater than 7.00; and `Cc1cn2nc(-c3cc(F)c4c(=O)n(C5CCN(CCF)CC5)ncc4c3)cc(C)c2n1` [Compound 538], with greater than 7.00; and `Cc1cn2nc(-c3cc(F)c4c(=O)n(C5CCN(C)CC5)ncc4c3)cc(C)c2n1` [Compound 539], with greater than 7.00.
In the case of `Cc1cn2nc(-c3cc(F)c4c(=O)n(C5CCNCC5)ncc4c3)cc(C)c2n1` [Compound 540], the pIC50 was greater than 7.00.
`Cc1cn2nc(-c3cc(O)c4c(=O)n(C5CCNCC5)ncc4c3)cc(C)c2n1` [Compound 541]: the pIC50 was greater than 7.00.
Turning to `CCN1CCC(n2ncc3cc(-c4cc(C)c5nc(C)cn5n4)cc(O)c3c2=O)CC1` [Compound 542], the pIC50 was greater than 7.00.
With `Cc1cn2nc(-c3cc(O)c4c(=O)n(C5CCN(C)CC5)ncc4c3)cc(C)c2n1` [Compound 543], the negative logarithm of the IC50 (pIC50) was greater than 7.00.
Then `Cc1cn2nc(-c3ccc4c(=O)n(C5CCNCC5)ccc4c3)cc(Oc3ccccc3F)c2n1` [Compound 544, 6-[8-(2-fluorophenoxy)-2-methyl-imidazo[1,2-b]pyridazin-6-yl]-2-(4-piperidyl) isoquinolin-1-one; hydrochloride], with greater than 7.00.
In the case of `Cc1cn2nc(-c3ccc4c(=O)n(C5CCNCC5)ccc4c3)cc(Oc3cccc(F)c3)c2n1` [Compound 545, 6-[8-(3-fluorophenoxy)-2-methyl-imidazo[1,2-b]pyridazin-6-yl]-2-(4-piperidyl)isoquinolin-1-one; hydrochloride], the pIC50 was greater than 7.00.
With `Cc1cn2nc(-c3ccc4c(=O)n(C5CCNCC5)ccc4c3)cc(Oc3ccc(F)cc3)c2n1` [Compound 546, 6-[8-(4-fluorophenoxy)-2-methyl-imidazo[1,2-b]pyridazin-6-yl]-2-(4-piperidyl) isoquinolin-1-one; hydrochloride], the pIC50 is greater than 7.00.
Then `COc1cccc(Oc2cc(-c3ccc4c(=O)n(C5CCNCC5)ccc4c3)nn3cc(C)nc23)c1` [Compound 547, 6-[8-(3-methoxyphenoxy)-2-methyl-imidazo[1,2-b]pyridazin-6-yl]-2-(4 piperidyl) isoquinolin-1-one], with greater than 7.00; and `Cc1cn2nc(-c3cc(F)c4c(=O)n(C5CCNCC5)ncc4c3)cc(Oc3ccccc3)c2n1` [Compound 548, 8-fluoro-6-(2-methyl-8-phenoxy-imidazo[1,2-b]pyridazin-6-yl)-2-(4-piperidyl)phthala-zin-1-one], with greater than 7.00.
Consider `Cc1cn2nc(-c3ccc4c(=O)n(C5CCNCC5)ncc4c3)cc(Oc3ccccc3)c2n1` [Compound 549, 6-(2-methyl-8-phenoxy-imidazo[1,2-b]pyridazin-6-yl)-2-(4-piperidyl) phthalazin-1-one], for which the pIC50 was greater than 7.00.
